IC50 and half-life data for 29 compounds are collected here from patent US12503444B2, “Compound containing benzene ring and application thereof” (WUHAN LL SCIENCE AND TECHNOLOGY DEVELOPMENT CO., LTD., priority 2019, dated 2025).

pIC50: −log10 of the molar value. Where two headings read alike, the source gives them in different places.

Data set [1] has as its target T1, hP2X4 (human purinergic P2X receptor subtype 4) (Homo sapiens, UniProt Q99571).
T1 sequence (Q99571 1-404 isoform Q99571-2): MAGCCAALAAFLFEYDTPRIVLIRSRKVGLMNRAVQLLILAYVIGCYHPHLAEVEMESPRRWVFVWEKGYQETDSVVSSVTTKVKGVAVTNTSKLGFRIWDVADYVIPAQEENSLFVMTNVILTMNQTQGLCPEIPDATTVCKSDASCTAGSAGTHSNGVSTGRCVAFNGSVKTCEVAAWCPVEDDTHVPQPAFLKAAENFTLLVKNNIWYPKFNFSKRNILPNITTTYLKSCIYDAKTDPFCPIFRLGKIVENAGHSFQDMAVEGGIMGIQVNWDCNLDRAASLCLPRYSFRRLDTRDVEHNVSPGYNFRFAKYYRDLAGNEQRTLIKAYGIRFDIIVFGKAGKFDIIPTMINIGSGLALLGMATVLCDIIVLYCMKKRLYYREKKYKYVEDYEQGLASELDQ
In words: FLIPR assay of intracellular calcium increase induced by activation of hP2X4 expressed in HEK293 cells (agonist BZ-ATP 2.5 μM). The data set is classed as cell-based. The note with it: HEK293 cells stably expressing hP2X4, FLIPR, read-out: P2X4 IC50. The protocol:
The antagonist property of the compounds disclosed herein was determined using the FLIPR (fluorescence imaging plate reader) method, wherein the compounds are inhibitors for the intracellular calcium increase induced by activation of hP2X4 (human purinergic P2X receptor subtype 4, accession No. NM_001256796.2) expressed in HEK293 cells (human renal epithelial cell line, ATCC).
HEK293 cells stably expressing hP2X4 were cultured in DMEM high glucose medium containing 10% FBS (fetal bovine serum, Biosera, FB-1058/500), 1% penicillin-streptomycin (Gibco, 15140-122) and 1 mg/mL G418 (CABIOCHE, 345810) in a cell incubator (37° C., […]). Cells at 400,000 cells/mL were seeded into a 384-well plate (10,000 cells/well) 18-24 h prior to the FLIPR experiment and then incubated overnight in a cell incubator. On the day of the experiment, the medium was discarded and the cells were washed in an FLIPR buffer (0.3 mL of probenecid (Thermo, P36400), 0.6 mL of 1 M HEPES (Invitrogen, 15630080) and 29.1 mL of HBSS (Invitrogen, 14065056) per 30 mL of the buffer). Each well was added with 20 μL of 0.5× Calcium 6 fluorescent dye (Molecular Devices, R8190) and then the cells were subjected to dye-loading incubation at 37° C. for 1.5 h. Each well was added with 10 μL of respective test compound (dissolved in DMSO at a concentration of 10 mM and serially diluted with buffer) or vehicle and the mixture was equilibrated for 30 min at room temperature. The cell plate was then placed in the FLIPR for baseline fluorescence measurements (excitation at 485 nm and emission at 525-535 nm). An agonist (BZ-ATP (Sigma, B6396) at a final concentration of 2.5 μM) or a vehicle (ultrapure water) was then added at 10 μL/well, fluorescence values were measured for 2 min at 1-second intervals, and finally the output fluorescence counts were analyzed.
For orientation: A change in cytosolic calcium serves as a functional read-out for many receptors and channels.

Data set [2] is described as follows: In vitro metabolic stability, liver microsome incubation (human). The format is in vitro ADME. The conditions noted are these: human, liver microsomes; 1 mg/mL liver microsome protein, 37° C.; read-out: T1/2 in human liver microsome min. As for the experimental part: The in vitro metabolic stability of the compounds disclosed herein was determined through incubation of liver microsomes of various species. A proper amount of test compound was added into a liver microsome reaction system (1 mg/mL liver microsome protein, 25 U/mL glucose-6 phosphate dehydrogenase, 1 mM NADP, 6 mM D-glucose 6-phosphate and 5 mM MgCl2), and then the mixture was incubated in a water bath kettle at 37° C. to start the reaction. At each time point, 100 μL of the reaction system was added into a centrifuge tube containing 400 μL of internal standard working solution (containing a 200 ng/mL solution of dexamethasone, diclofenac, tolbutamide and labetalol in acetonitrile) precooled at 0° C. so as to stop the reaction, and the mixture was then centrifuged at 10,000 g for 10 min at 4° C. The supernatant was collected for LC-MS assay so as to obtain the values of in vitro metabolic half-life of the test compounds in liver microsomes of various species.
Background: Liver microsomes are a subcellular fraction often used to study metabolism.

In general, pIC50 refers to −log10 of the IC50, conventionally taken in molar units. For `C=CCn1ncc2c(S(N)(=O)=O)cc(NC(=O)Cc3ccccc3Cl)cc21` [Compound 14-B], the pIC50 in data set [1] (class symbols) is at least 8.00. Also, the half-life in data set [2] worked out at 1.61 h.

For the compound `CCn1ncc2c(S(N)(=O)=O)cc(NC(=O)Cc3ccccc3Cl)cc21` [Compound 4-B, (4-sulfonamide-6-N-(2-chlorophenylacetyl)-1-ethyl)-indazole], in data set [1] (class symbols), the pIC50 is at least 8.00. The half-life in data set [2] was 1.23 h. Take `COc1cccc(Cn2cc3c(S(N)(=O)=O)cc(NC(=O)Cc4ccccc4Cl)cc3n2)c1` [Compound 36-A, 2-(2-chlorophenyl)-N-(2-(3-methoxybenzyl)-4-sulfamoyl-2H-indazol-6-yl)acetamide]: the pIC50 in data set [1] (class symbols) was 7.30 to 8.00. The half-life in data set [2] turned out to be 1.44 h.

`Nc1ccc(Cn2cc3c(S(N)(=O)=O)cc(NC(=O)Cc4ccccc4Cl)cc3n2)cn1` [Compound 101, N-(2-((6-aminopyridin-3-yl)methyl)-4-sulfamoyl-2H-indazol-6-yl)-2-(2-chlorophenyl)acetamide]: in data set [1] (class symbols), the pIC50 was 7.30 to 8.00. In addition, the half-life in data set [2] is 1.86 h. In the same order, the values of `COc1ccccc1Cn1cc2c(S(N)(=O)=O)cc(NC(=O)Cc3ccccc3Cl)cc2n1` [Compound 37-A, 2-(2-chlorophenyl)-N-(2-(2-methoxybenzyl)-4-sulfamoyl-2H-indazol-6-yl)acetamide] are 7.30 to 8.00 and 1.32 h. For `COc1cccc(Cn2ncc3c(S(N)(=O)=O)cc(NC(=O)Cc4ccccc4Cl)cc32)c1` [Compound 36-B, 2-(2-chlorophenyl)-N-(1-(3-methoxybenzyl)-4-sulfamoyl-1H-indazol-6-yl)acetamide] the same measures were 7.30 to 8.00 and 0.962 h.

Consider `CC(C)C(=O)n1cc2c(S(N)(=O)=O)cc(NC(=O)Cc3ccccc3Cl)cc2n1` [Compound 41, 2-(2-chlorophenyl)-N-(2-isobutyryl-4-sulfamoyl-2H-indazol-6-yl)acetamide], for which, in data set [1] (class symbols), the pIC50 was 7.30 to 8.00. With `CC(C)n1cc2c(S(N)(=O)=O)cc(NC(=O)Cc3ccccc3Cl)cc2n1` [Compound 6-A, 2-(2-chlorophenyl)-N-(2-isopropyl-4-sulfamoyl-2H-indazol-6-yl)acetamide], in data set [1] (numeric values), the pIC50 is 8.94. Regarding `NS(=O)(=O)c1cc(NC(=O)Cc2ncccc2Cl)cc2nn(C(F)F)cc12` [Compound 113, 2-(3-chloropyridin-2-yl)-N-(2-(difluoromethyl)-4-sulfamoyl-2H-indazol-6-yl)acetamide], the pIC50 in data set [1] (class symbols) was 5.30 to 6.70. Same read-out and setting: to `NS(=O)(=O)c1cc(NC(=O)Cc2ccccc2Cl)cc2c1cnn2C(F)F` [Compound 43, 2-(2-chlorophenyl)-N-(1-(difluoromethyl)-4-sulfamoyl-1H-indazol-6-yl)acetamide] belongs 7.30 to 8.00; to `NS(=O)(=O)c1cc(NC(=O)Cc2ccccc2Cl)cc2nn(C3COC3)cc12` [Compound 59, 2-(2-chlorophenyl)-N-(2-(oxetan-3-yl)-4-sulfamoyl-2H-indazol-6-yl)acetamide], 5.30 to 6.70; to `Cc1ccccc1CC(=O)Nc1cc([S@](C)(=N)=O)c2cn(Cc3ccc(F)cc3)nc2c1` [Compound 139A], 5.30 to 6.70. On the same count and under the same terms, the result for `NS(=O)(=O)c1cc(NC(=O)Cc2ccccc2Cl)cc2nn(CCC3CC3)cc12` [Compound 33, 2-(2-chlorophenyl)-N-(2-(2-cyclopropylethyl)-4-sulfamoyl-2H-indazol-6-yl)acetamide] reads at least 8.00; that for `CC(C)NCCn1cc2c(S(N)(=O)=O)cc(NC(=O)Cc3ccccc3Cl)cc2n1` [Compound 29, 2-(2-chlorophenyl)-N-(2-(2-(isopropylamino)ethyl)-4-sulfamoyl-2H-indazol-6-yl)acetamide], 7.30 to 8.00; that for `NS(=O)(=O)c1cc(NC(=O)Cc2ccccc2Cl)cc2c1cnn2-c1ccc(Cl)cc1` [Compound 45, 2-(2-chlorophenyl)-N-(1-(4-chlorophenyl)-4-sulfamoyl-1H-indazol-6-yl)acetamide], 7.30 to 8.00. For the compound “2-(2-chlorophenyl)-N-(1-(2-hydroxyethyl)-4-sulfamoyl-2H-indazol-6-yl)acetamide [Compound 27-B]”, the pIC50 in data set [1] (class symbols) is 6.70 to 7.30. Turning to `CC(C)C(=O)n1ncc2c(S(N)(=O)=O)cc(NC(=O)Cc3ccccc3Cl)cc21` [Compound 58, 2-(2-chlorophenyl)-N-(1-isobutyryl-4-sulfamoyl-1H-indazol-6-yl)acetamide], the pIC50 in data set [1] (class symbols) is 5.30 to 6.70. Consider `C[S@@](=N)(=O)c1cc(NC(=O)Cc2ccccc2Cl)cc2nn(Cc3ccc(F)cc3)cc12` [Compound 138A, (R)-2-(2-chlorophenyl)-N-(2-(4-fluorophenylmethyl)-4-(S-methylsulfonimidoyl)-2H-indazol-6-yl)acetamide], for which, in data set [1] (class symbols), the pIC50 is 5.30 to 6.70. For `N#Cc1nc2c(S(N)(=O)=O)cc(NC(=O)Cc3ccccc3Cl)cc2[nH]1` [Compound 51, 6-(2-chlorophenylacetamide)-2-nitrile-4-sulfonamide benzimidazole], the pIC50 in data set [1] (numeric values) is 6.03. Consider `Cc1ccccc1CC(=O)Nc1cc([S@@](C)(=N)=O)c2cn(Cc3ccc(F)cc3)nc2c1` [Compound 139, (S)—N-(2-(4-fluorophenylmethyl)-4-(S-methylsulfonimidoyl)-2H-indazol-6-yl)-2-(o-phenylmethyl)acetamide], for which, in data set [1] (class symbols), the pIC50 is 5.30 to 6.70. As to `CC(C)(C)n1cc2c(S(N)(=O)=O)cc(NC(=O)Cc3ccccc3Cl)cc2n1` [Compound 9, 2-(2-chlorophenyl)-N-(2-(tert-butyl)-4-sulfamoyl-2H-indazol-6-yl)acetamide], in data set [1] (class symbols), the pIC50 is at least 8.00.

In the case of `Nc1ccc(Cn2ncc3c(S(N)(=O)=O)cc(NC(=O)Cc4ccccc4Cl)cc32)cc1` [Compound 95A, N-(1-(4-aminobenzyl)-4-sulfamoyl-1H-indazol-6-yl)-2-(2-chlorophenyl)acetamide], in data set [1] (class symbols), the pIC50 was at least 8.00.

`COc1ccc(Cn2cc3c(S(N)(=O)=O)cc(NC(=O)Cc4ccccc4Cl)cc3n2)c(F)c1` [Compound 85]: in data set [1] (class symbols), the pIC50 was at least 8.00. On to `NS(=O)(=O)c1cc(NC(=O)Cc2ccccc2Cl)cc2[nH]ccc12` [Compound 56, 2-(2-chlorophenyl)-N-(4-sulfamoyl-1H-indol-6-yl)acetamide], for which the pIC50 in data set [1] (class symbols) was 7.30 to 8.00. Same read-out and setting: to `NS(=O)(=O)c1cc(NC(=O)Cc2ccccc2Cl)cc2cn(CCO)nc12` [Compound 48-A, 2-(2-chlorophenyl)-N-(2-(2-hydroxyethyl)-7-sulfamoyl-2H-indazol-5-yl)acetamide] belongs 5.30 to 6.70; to “N-(4-(N,N-bis(4-methoxybenzyl)sulfamoyl)-1-(4-fluorobenzyl)-1H-indazol-6-yl)-2-(2-chlorophenyl)acetamide [Compound 88A]”, at least 8.00; to `COCCOc1cccc(CC(=O)Nc2cc(S(N)(=O)=O)c3cn(C(F)F)nc3c2)c1` [Compound 116, N-(2-(difluoromethyl)-4-sulfamoyl-2H-indazol-6-yl)-2-(3-(2-methoxyethoxy)phenyl)acetamide], 5.30 to 6.70. Turning to `NS(=O)(=O)c1cc(NC(=O)Cc2ccccc2Cl)cc2c1cnn2C(=O)c1ccc(F)cc1` [Compound 42-B, 2-(2-chlorophenyl)-N-(1-(4-fluorobenzoyl)-4-sulfamoyl-1H-indazol-6-yl)acetamide], in data set [1] (class symbols), the pIC50 is 5.30 to 6.70. On the same count and under the same terms, the result for “N-(2-(4-chlorobenzyl)-4-sulfamoyl-2H-indazol-6-yl)-2-(2-chlorophenyl)acetamide [Compound 89]” reads at least 8.00.
